From patent US6562783B2, “Phosphinylmethyl and phosphorylmethyl succinic and glutauric acid analogs as β-secretase inhibitors” (Neurologic, Inc., priority 2001, dated 2003)

Test system: sAPP secretion
Experiment: Enhancement of sAPP secretion (immunoblot with 6E10 antibody, densitometry)
Assay type: cell-based, Human
Settings: compound at 10 μM; FIG. 4
Description: Determination of the enhancement of sAPP secretion promoted by LQ-β series of compounds:
Human fibroblasts were obtained from the Coriell Cell Repositories (Camden, N.J.). Four AD cell lines (AG06848, AG04401, AG07377, AG06263) and four age-matched control cell lines (AG07141, AG06241, AG08044, AG04560) were grown to confluence in T75 cell culture flasks. Additional information about these cell lines can be found in the Catalog of Cell Lines from the National Institute of Aging. (National Institute of Aging, Catalog of Cell Lines (1994)). The culture medium was DMEM supplemented with 10% serum (FBS, Gibco). PC12 cells were obtained from the American Cell Culture Collection and grown to confluence in T75 flasks containing DMEM supplemented with 5% FBS (Gibco), 10% horse serum (Biofluids) and 1% of a mixture of penicillin (5,000 units/ml in G sodium) and streptomycin (5,000 μg/ml).
Cells in T-75 were seeded into 100 mm cell culture plates and allowed to grow for 2 days. […]
Conventional immunoblotting techniques were employed. […] Horseradish peroxidase bound signal was detected using an enhanced chemiluminescence followed by exposure to Hyperfilm ECL (Amersham). The band intensities were quantified by densitometric analyses using a BioRad GS-710 Scanning Densitometer and Multianalyst software (BioRad).

O=C(O)CC(CP(=O)(O)O)C(=O)N1CCN(C(=O)OCCOc2ccccc2)CC1 (stereo not shown) [LQ-∃1, 4-(2-Carboxymethyl-3-phosphono-propionyl)-piperazine-1-carboxylic acid 2-phenoxy-ethyl ester]
effect on sAPP secretion compared to vehicle (DMSO) alone: marked effect of enhancing secretion
